The source of these data is US12257290B2, “PIC1 inhibition of myeloperoxidase oxidative activity in an animal model” (priority 2018, dated 2025).

Assay [1] can be described thus: 'Two-hit' TRALI model: LPS then 30% mismatched human RBC transfusion. The assay is classed as in vivo, Wistar rats. The method, then:
In this Example, Wistar rats were primed with lipopolysaccharide followed by 30% transfusion of mismatched erythrocytes, against which the rats have preexisting antibodies. Sham and vehicle animals were used as controls with a subgroup of animals receiving PIC1 two minutes before transfusion. At 4 hours, blood was isolated for complete blood count. Isolated lung tissue was stained with hematoxylin and eosin and myeloperoxidase (MPO) activity in lung tissue was quantified in a functional assay. Free DNA in plasma was detected by PicoGreen staining.
Lung tissue stained with H&E was analyzed by a clinician blinded to the experimental groups (vehicle only and PIC1-treated animals). Neutrophil infiltration and cell wall thickening were scored on a scale of 0-4: 0=normal lungs, 1=minor lung involvement, 2=moderate lung involvement, 3=serious lung involvement, 4=severe lung involvement.
A myeloperoxidase (MPO) activity assay was conducted as follows. Frozen lung tissue was diced and homogenized on ice in 50 mM potassium phosphate, and centrifuged at 10,000 RPM at 4° C. for 15 minutes after which the supernatant was discarded. To solubilize MPO from the neutrophils in lung tissue, the pellet was resuspended in […] 50 mM hexadecyltrimethylammonium bromide (HTAB), homogenized by sonication and snap frozen in liquid nitrogen. This process was repeated twice and samples were then centrifuged at 10,000 RPM at 4° C. for 10 minutes and supernatant collected.
Peroxidase activity in these samples was measured using 10-actyl-3,7-dihydroxyphenoxazine (ADHP, Amplex Red) following MPO antibody capture from samples as previously described. Fluorescence was read from […] in […] which provided twenty-five data points per well at an excitation wavelength of 535 nm and emission wavelength of 590 nm using a BioTek microplate reader. Purified MPO was used as a positive control and phosphate buffered saline (PBS) as a negative control. All activity assays were performed in triplicate.
Free DNA was measured by PicoGreen in rat plasma as previously described. Briefly, plasma samples were diluted 1:10 in 10 mM Tris-HCl, 1 mM EDTA, pH 8.0 (TE) buffer and 50 uL of each sample was added to the wells along with 50 uL of a 1:200 dilution of PicoGreen (Life Technologies) and incubated at room temperature for 10 minutes, protected from light. A DNA standard curve was prepared in TE Buffer. The fluorescence was then read at an excitation wavelength of 485 nm and an emission wavelength of 520 nm using a BioTek microplate reader. All free DNA measurements were done in triplicate.
For the ‘two-hit’ model, rats were sedated as above and lipopolysaccharide (LPS, from Salmonella enterica serotype enteritidis, 2 mg/kg [Millipore-Sigma]) was administered intravascularly through the indwelling jugular catheter as the ‘first-hit’ similar to other TRALI models (reviewed in references). This was followed 30 minutes later by 30% mismatched RBC transfusion as the ‘second-hit’. Blood samples were collected prior to LPS administration and at 4 hours after RBC transfusion for analysis of blood chemistries (SuperChem and CBC, Antech Diagnostics). Upon completion of the final blood draw, the animals were euthanized using isofluorane and guillotine. A necropsy was completed to collect organs for histopathology. Lungs acquired from each animal were weighed and then stored in formalin or frozen at −70° C. Hematoxylin and eosin (H&E) stained sections of formalin fixed tissue were reviewed in a blinded fashion.
To determine if prophylactic administration of PIC1 would attenuate TRALI pathogenesis, this transfusion-based antibody-initiated complement-mediated TRALI model was utilized. Twenty-eight minutes after IV LPS infusion, 160 mg/kg PIC1 or vehicle control was administered IV followed by the 30% mismatched RBC transfusion. […]

For assay [2], the system named is complement activation in normal human serum (NHS). Put plainly: Ovalbumin-antiovalbumin immune complex-initiated complement activation in normal human serum (C5a, iC3b, SC5b-9 ELISA). The assay is classed as biochemical. How it is done:
Immune complex activation of NHS was performed as follows. NHS was stimulated with three different types of immune complexes (IC) to induce complement activation. Heat-aggregated IgG was generated by incubating intravenous immune globulin at 50 mg/ml at 63° C. for 30 min [26]. Ovalbumin-antiovalbumin immune complexes were made by incubating 0.01 ml anti-ovalbumin antibody with an equal volume of ovalbumin, at 0.25 mg/nil, at 37° C. for 30 minutes and then storing at 4° C. overnight. C1 immune complexes were formed by incubating 0.02 ml anti-C1q goat sera with 5 μl of C1, at 200 μg/ml, at 30° C. for 30 minutes and then placing in an ice water bath. For C5a and C5b-9 assays, activation of NHS was performed by pre-incubating 5% NHS with titrating concentrations of PA-dPEG24 in 0.3 ml of GVBS^++ buffer for 30 minutes at room temperature. […]
ELISA was performed as follows. […] Colorimetric detection was performed with TMB, stopped with H2SO4 and read on a BioTek Synergy HT plate reader at 450 nm.
To provide confirmation of the results with heat-aggregated IgG, the antigen-antibody immune complex most often utilized in animal models of complement activation, ovalbumin and antiovalbumin [27, 28], was then tested. The ovalbumin-antiovalbumin immune complexes were used to stimulate complement activation in NHS and the same three effectors, C5a, iC3b and C5b-9, were measured. […]

In assay [3] the test system is classical complement pathway. As to conditions: administered intravascularly into rats; by 30 seconds; cited from earlier work.

Ends that are not written are not given here.

With “IALILEPICCQERAA-dPEG24 (cysteine pairing not given here) [PA-dPEG24, 15-amino acid PEGylated peptide, 24 PEG moieties at the C-terminus]”, the lung weight result in assay [1] (160 mg/kg IV 2 min before transfusion, 4 h after transfusion, vs vehicle p=0.001) was “significant reduction”. Further, the “lung histology (H&E)” value in assay [1] (160 mg/kg IV prophylactic, 4 h after transfusion) is reported as “decreased injury to the lung architecture”. Also, in assay [1] (5 minutes read, vs vehicle p=0.005), the “MPO activity in lung tissue (Amplex Red)” value is listed as “significantly reduced”. Moreover, the “MPO activity in lung tissue (Amplex Red)” value in assay [1] (10 minutes read, vs vehicle p=0.002) is reported as “significantly reduced”. Besides, the “lung injury score (neutrophil infiltration and cell wall thickening), mean” value in assay [1] (scale 0-4, 160 mg/kg IV, vs vehicle p=0.003) was found to be 1.5. Further, the “free DNA in plasma (PicoGreen)” value in assay [1] (vs vehicle p=0.02) was “significantly reduced”. Also, in assay [1] (vs vehicle p=0.043), the “blood levels of white blood cells” value was “significant increase”. Also, the “blood levels of lymphocytes” value in assay [1] (vs vehicle p=0.048) is on record as “significant increase”. Also, the circulating neutrophils entry in assay [1] (vs vehicle p=0.101) is on record as “trends towards increased numbers”. In addition, in assay [1] (vs vehicle p=0.229), the circulating monocytes entry is reported as “trends towards increased numbers”. Further, in assay [1] (vs vehicle, data not shown), the “blood levels of creatinine, BUN/creatinine and AST” value is reported as “reduction”; the kidney weights result is “reduced kidney weights”. Besides, the “measured SC5b-9” value in assay [2] (2 mM PA-dPEG24) is “at the lower limit of detection”. Also, the “PA-dPEG24 concentration giving statistically significant inhibition of each complement effector (C5a, iC3b, C5b-9)” value in assay [2] (ovalbumin-antiovalbumin in NHS, P<0.03 vs immune complex alone) is given as at least 0.25 mM. The “systemic inhibition of complement activation” value in assay [3] was above 90%.
